Columns and labels:
human OXGR1 [1] = molecular target: T1, human OXGR1 (Homo sapiens, UniProt Q96P68); assay: Aequorin assay (calcium mobilization) in HEK293 cells overexpressing human OXGR1; assay type: cell-based
Protocol: (§1) Thirty-six hours after transfection, cells were maintained in serum-free medium for 12 hours and then loaded with 5 μM coelenterazine for 3 hours. Cells were trypsinized and resuspended at a density of 5 × 10^5 cells/mL in HBSS supplemented with 10 mM HEPES and 0.5% BSA. Cell suspensions of 100 μL were aliquoted into 96-well plates.

FLAG-tagged OXGR1 = molecular target: T2, FLAG-tagged OXGR1 (Homo sapiens, UniProt Q96P68); assay: Endocytosis assay of FLAG-tagged OXGR1 in HEK293 cells; assay type: cell-based; details: WT OXGR1, within 10 minutes of ligand treatment
T2 construct: expressed in transfected cells
Protocol: For endocytosis assays, HEK293 cells stably expressing FLAG-OXGR1 were chilled on ice in DMEM medium supplemented with 30 mM HEPES for 10 minutes. […] Unbound antibody was then washed off with prechilled HBSS buffer. […] After ligand stimulation, cells were fixed and permeabilized. Subcellular localization of FLAG-tagged OXGR1 was detected using FITC-donkey anti-rabbit antibody (Invitrogen, Thermo Fisher Scientific), and nuclei were stained with DAPI (MilliporeSigma). Immunofluorescence images were captured with a Leica SP8 laser-scanning confocal microscope.

human OXGR1 [2] = molecular target: T1, human OXGR1; assay: Fluo-4 assay in HEK293 cells expressing human OXGR1; assay type: cell-based
Protocol: For the Fluo-4AM assay, OXGR1-expressing cells were loaded with 2 μM Fluo-4AM for 30 minutes at 37°C. Excess Fluo-4AM was then washed off with HBSS buffer. After incubation at 37°C for another 10 minutes, cells were transferred onto a 96-well plate.

mouse OXGR1 = molecular target: T3, mouse OXGR1 (Mus musculus, UniProt Q6IYF8); assay: Aequorin assay (calcium mobilization) in HEK293 cells overexpressing mouse OXGR1; assay type: cell-based; details: EC50, aequorin assay, mOXGR1 in HEK293 cells
T3 construct: expressed in transfected cells; host or cells: HEK293
T3 sequence (Q6IYF8 whole entry): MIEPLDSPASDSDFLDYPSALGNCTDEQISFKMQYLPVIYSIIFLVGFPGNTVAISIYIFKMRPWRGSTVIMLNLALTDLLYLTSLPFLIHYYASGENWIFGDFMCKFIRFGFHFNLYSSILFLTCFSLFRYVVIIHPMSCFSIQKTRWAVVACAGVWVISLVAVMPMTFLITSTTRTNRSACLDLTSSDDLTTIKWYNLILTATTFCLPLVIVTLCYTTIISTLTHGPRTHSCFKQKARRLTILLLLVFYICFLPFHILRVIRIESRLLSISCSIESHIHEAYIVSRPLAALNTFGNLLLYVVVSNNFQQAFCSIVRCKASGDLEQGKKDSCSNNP
Protocol: as §1

mouse trachea = assay: Ex vivo trachea culture, cilia beating-derived fluorescent bead movement; details: 500 μM ITA or 100 μM ATP
Protocol: Tracheas were harvested from mice and cut longitudinally through the middle of the trachealis muscle to expose the lumen of the trachea. Tracheas were then transferred into HBSS buffer and equilibrated for 30 minutes. With the lumen facing down, trachea tissues were transferred into 2 mL HBSS buffer supplemented with 0.5% methylcellulose, red fluorescent beads, 30 mM HEPES, and the indicated ligand. Bead flow was monitored with the BioTek Cytation 5 cell imaging system. Twenty individual beads were tracked from different fields of view in each condition, and the speed of each bead was calculated by […].

[3] = system: primary respiratory epithelial cells from Oxgr1+/+ and Oxgr1–/– mice; assay: Calcium imaging (Fluo-4AM) of primary mouse trachea epithelial cells; assay type: cell-based; details: 670 μM ITA or 100 μM ATP
Protocol: For calcium imaging of human primary bronchial epithelial cells, cells were infected with 2 CRISPR lentiviruses targeting OXGR1 and cultured for 2 days before calcium imaging. For calcium imaging of primary mouse cells, freshly isolated mouse tracheas were cut into rings, placed onto collagen-coated dishes, and cultured in DMEM supplemented with 10% FBS. Cells were loaded with 5 μM Fluo-4AM for 30 minutes in HBSS buffer, washed twice, and incubated for another 15 minutes for fully deesterification of Fluo-4AM. Cells loaded with Fluo-4AM were monitored with the BioTek Cytation 5 Cell imaging system every 300 ms for a total of 1.5 minutes after ligand administration. Fluorescence was quantified with ImageJ software (NIH).

Row | calcium response (agonist effect) (human OXGR1 [1]; HEK293 cells overexpressing human OXGR1, aequorin) | endocytosis of OXGR1 (FLAG-tagged OXGR1) | EC50 (human OXGR1 [2]) [µM] | EC50 (human OXGR1 [1]) [µM] | EC50 (mouse OXGR1) [µM] | Structure (SMILES) | effect on α-KG– or ITA-triggered intracellular Ca2+ release (human OXGR1 [1]; addition of LTE4, OXGR1-expressing HEK293 cells) | movement of beads, trachea from Oxgr1+/+ mice (mouse trachea) | movement of beads, trachea from Oxgr1–/– mice (mouse trachea) | calcium mobilization, Oxgr1+/+ cells [3] | calcium mobilization, Oxgr1–/– cells [3]
1 | failed to show any agonizing effect | failed to show any agonizing effect |  |  |  | CCCCC/C=C\C\C=C/C=C/C=C/[C@@H](SC[C@H](N)C(=O)O)[C@@H](O)CCCC(=O)O [LTE4, Leukotriene E4, reference compound] | did not prevent, and even moderately enhanced |  |  |  | 
2 |  | rapid endocytosis of OXGR1 was triggered | 161 ± 34.7 | 248 ± 58.6 | 241 ± 61.1 | O=C(O)CCC(=O)C(=O)O [α-KG, α-ketoglutaric acid, reference compound] |  |  |  |  | 
3 |  |  |  |  |  | Nc1ncnc2c1ncn2[C@@H]1O[C@H](COP(=O)(O)OP(=O)(O)OP(=O)(O)O)[C@@H](O)[C@H]1O [ATP, reference compound] |  | comparable speed of bead movement | comparable speed of bead movement | normal calcium release | normal calcium release

— publication PMC10014103, “The immunometabolite itaconate stimulates OXGR1 to promote mucociliary clearance during the pulmonary innate immune response” (The Journal of Clinical Investigation, 2023)
